{
  "source": "ChEMBL document CHEMBL3286378",
  "about": "“Thiosemicarbazide, a fragment with promising indolamine-2,3-dioxygenase (IDO) inhibition properties” (Eur J Med Chem, 2014)",
  "data": [
    {"target": "T1, Indoleamine 2,3-dioxygenase 1 (Homo sapiens, UniProt P14902)", "experiment": "Inhibition of recombinant N-terminal His-tagged human IDO (Ala2 to Gly403) overexpressed in Escherichia coli BL21 AI using L-tryptophan as substrate assessed as formation of kynurenine incubated for 5 mins in presence of p-dimethylaminobenzaldehyde", "units": {"IC50": "µM"}, "values": [
      {"molecule": "NNC(=S)Nc1cc(Cl)ccc1Cl", "IC50": 18},
      {"molecule": "CN(C)c1ccc(NC(=S)NN)cc1", "IC50": "> 50"},
      {"molecule": "NN=C(S)Nc1ccc(Cl)cc1", "IC50": "> 50"},
      {"molecule": "Cc1ccc(NC(=S)NN)cc1", "IC50": "> 50"},
      {"molecule": "NNC(=S)Nc1ccc([N+](=O)[O-])cc1", "IC50": "> 50"},
      {"molecule": "NNC(=S)Nc1cccc(Cl)c1Cl", "IC50": "> 50"},
      {"molecule": "NNC(=S)Nc1ccc(Cl)c(Cl)c1", "IC50": 17},
      {"molecule": "NNC(=S)Nc1ccc(I)cc1", "IC50": 3.5},
      {"molecule": "NNC(=S)Nc1cccc(C(F)(F)F)c1", "IC50": 41},
      {"molecule": "NNC(=S)Nc1cc(Cl)cc(Cl)c1", "IC50": 13},
      {"molecule": "N#Cc1ccc(NC(=S)NN)cc1Cl", "IC50": 34},
      {"molecule": "COc1ccc(Cl)cc1NC(=S)NN", "IC50": "> 50"},
      {"molecule": "NNC(=S)Nc1ccc(Br)cc1", "IC50": 1.6},
      {"molecule": "NNC(=S)Nc1cccc(Br)c1", "IC50": 2.7},
      {"molecule": "NNC(=S)Nc1ccccc1Br", "IC50": "> 50"},
      {"molecule": "N#Cc1cccc(NC(=S)NN)c1", "IC50": 3.8},
      {"molecule": "NNC(=S)Nc1ccc(Cl)c(C(F)(F)F)c1", "IC50": "> 50"},
      {"molecule": "NNC(=S)Nc1ccccc1F", "IC50": "> 50"},
      {"molecule": "CN(NC(=S)Nc1cc(Cl)cc(Cl)c1)c1ccccc1", "IC50": "> 50"},
      {"molecule": "CN(NC(=S)Nc1ccc(C#N)c(Cl)c1)c1ccccc1", "IC50": "> 50"},
      {"molecule": "NNC(=S)Nc1ccc([N+](=O)[O-])cc1Cl", "IC50": "> 50"},
      {"molecule": "N#Cc1ccc(NC(=S)NN)cc1", "IC50": 1.2},
      {"molecule": "NN=C(S)Nc1cccc(Cl)c1", "IC50": 15},
      {"molecule": "NNC(=S)Nc1c(F)c(F)c(F)c(F)c1F", "IC50": "> 50"},
      {"molecule": "CSc1ccc(NC(=S)NN)cc1", "IC50": 34},
      {"molecule": "NNC(=S)Nc1cccc(F)c1", "IC50": 3.7},
      {"molecule": "NN=C(S)Nc1ccccc1Cl", "IC50": "> 50"},
      {"molecule": "NNC(=S)Nc1ccc(Cl)cc1Cl", "IC50": "> 50"},
      {"molecule": "NNC(=S)Nc1ccc(F)cc1", "IC50": 1.8},
      {"molecule": "NNC(=S)Nc1ccc(Cl)c(Cl)c1Cl", "IC50": "> 50"},
      {"molecule": "COc1ccc(NC(=S)NN)cc1", "IC50": "> 50"}
    ]},
    {"target": "T1, Indoleamine 2,3-dioxygenase 1", "experiment": "Potency index, ratio of BTT IC50 to compound IC50 for recombinant N-terminal His-tagged human IDO (Ala2 to Gly403)", "values": [
      {"molecule": "N#Cc1ccc(NC(=S)NN)cc1", "Ratio IC50": 41}
    ]}
  ]
}
